Reference: the NIST ThermoML archive (doi:10.1021/je201116t)

Test: xn = mol fraction of the nth substance listed
Conditions: 101 kPa, Liquid; for viscosity: Capillary tube (Ostwald / Ubbelohde) method

CCC(=O)[O-].CC[NH+]1CCNCC1 [N-ethylpiperazinium propionate] + CCCCO
Conditions | mass density, 298.15 K [kg/m3] | mass density, 303.15 K [kg/m3] | mass density, 308.15 K [kg/m3] | mass density, 313.15 K [kg/m3] | viscosity, 298.15 K [mPa·s] | viscosity, 303.15 K [mPa·s] | viscosity, 308.15 K [mPa·s] | viscosity, 313.15 K [mPa·s]
x2 = 0 | 1008.36 | 1004.38 | 1000.33 | 996.237 | 243.49 | 164.81 | 113.44 | 80.93
x2 = 0.1025 | 998.465 | 994.495 | 990.478 | 986.427 | 177.49 | 122.06 | 84.94 | 61.07
x2 = 0.2018 | 987.497 | 983.536 | 979.527 | 975.484 | 133.79 | 91.02 | 63.82 | 46.53
x2 = 0.2999 | 975.365 | 971.427 | 967.437 | 963.409 | 98.72 | 67.32 | 47.84 | 35.22
x2 = 0.3989 | 961.397 | 957.475 | 953.503 | 949.491 | 73.16 | 50.02 | 35.72 | 26.48
x2 = 0.5016 | 944.783 | 940.876 | 936.907 | 932.906 | 53.48 | 36.42 | 26.02 | 19.37
x2 = 0.6004 | 926.29 | 922.385 | 918.422 | 914.42 | 38.82 | 26.35 | 18.8 | 14.05
x2 = 0.7012 | 903.96 | 900.045 | 896.078 | 892.071 | 27.07 | 18.12 | 12.92 | 9.675
x2 = 0.8008 | 877.764 | 873.84 | 869.866 | 865.851 | 17.51 | 11.84 | 8.502 | 6.434
x2 = 0.8995 | 845.961 | 842.05 | 838.083 | 834.079 | 9.611 | 6.701 | 4.966 | 3.87

CCC(=O)[O-].CC[NH+]1CCNCC1 [N-ethylpiperazinium propionate] + CCCO
Conditions | mass density, 298.15 K [kg/m3] | mass density, 303.15 K [kg/m3] | mass density, 308.15 K [kg/m3] | mass density, 313.15 K [kg/m3] | viscosity, 298.15 K [mPa·s] | viscosity, 303.15 K [mPa·s] | viscosity, 308.15 K [mPa·s] | viscosity, 313.15 K [mPa·s]
x2 = 0 | 1008.36 | 1004.38 | 1000.33 | 996.237 | 243.49 | 164.81 | 113.44 | 80.93
x2 = 0.1036 | 1000.19 | 996.232 | 992.229 | 988.196 | 160.34 | 113.63 | 81.46 | 59.74
x2 = 0.2026 | 991.259 | 987.3 | 983.298 | 979.269 | 107.67 | 76.59 | 56.22 | 42.19
x2 = 0.3041 | 980.78 | 976.824 | 972.831 | 968.803 | 70.22 | 52.12 | 39.45 | 30.42
x2 = 0.4017 | 968.85 | 964.943 | 960.993 | 956.993 | 47.45 | 36.21 | 28.19 | 22.22
x2 = 0.4993 | 955.014 | 951.074 | 947.084 | 943.06 | 30.81 | 24.26 | 19.38 | 15.67
x2 = 0.5997 | 937.035 | 933.087 | 929.086 | 925.047 | 18.93 | 15.39 | 12.6 | 10.42
x2 = 0.6994 | 915.033 | 911.053 | 907.028 | 902.965 | 11.31 | 9.444 | 7.899 | 6.684
x2 = 0.8009 | 886.568 | 882.553 | 878.491 | 874.385 | 6.389 | 5.454 | 4.689 | 4.059
x2 = 0.8997 | 850.105 | 846.036 | 841.932 | 837.782 | 3.609 | 3.15 | 2.762 | 2.435
